Where only a bound is given, the exact number is not on record here.

Chain of EGFR (P00533 25-1210): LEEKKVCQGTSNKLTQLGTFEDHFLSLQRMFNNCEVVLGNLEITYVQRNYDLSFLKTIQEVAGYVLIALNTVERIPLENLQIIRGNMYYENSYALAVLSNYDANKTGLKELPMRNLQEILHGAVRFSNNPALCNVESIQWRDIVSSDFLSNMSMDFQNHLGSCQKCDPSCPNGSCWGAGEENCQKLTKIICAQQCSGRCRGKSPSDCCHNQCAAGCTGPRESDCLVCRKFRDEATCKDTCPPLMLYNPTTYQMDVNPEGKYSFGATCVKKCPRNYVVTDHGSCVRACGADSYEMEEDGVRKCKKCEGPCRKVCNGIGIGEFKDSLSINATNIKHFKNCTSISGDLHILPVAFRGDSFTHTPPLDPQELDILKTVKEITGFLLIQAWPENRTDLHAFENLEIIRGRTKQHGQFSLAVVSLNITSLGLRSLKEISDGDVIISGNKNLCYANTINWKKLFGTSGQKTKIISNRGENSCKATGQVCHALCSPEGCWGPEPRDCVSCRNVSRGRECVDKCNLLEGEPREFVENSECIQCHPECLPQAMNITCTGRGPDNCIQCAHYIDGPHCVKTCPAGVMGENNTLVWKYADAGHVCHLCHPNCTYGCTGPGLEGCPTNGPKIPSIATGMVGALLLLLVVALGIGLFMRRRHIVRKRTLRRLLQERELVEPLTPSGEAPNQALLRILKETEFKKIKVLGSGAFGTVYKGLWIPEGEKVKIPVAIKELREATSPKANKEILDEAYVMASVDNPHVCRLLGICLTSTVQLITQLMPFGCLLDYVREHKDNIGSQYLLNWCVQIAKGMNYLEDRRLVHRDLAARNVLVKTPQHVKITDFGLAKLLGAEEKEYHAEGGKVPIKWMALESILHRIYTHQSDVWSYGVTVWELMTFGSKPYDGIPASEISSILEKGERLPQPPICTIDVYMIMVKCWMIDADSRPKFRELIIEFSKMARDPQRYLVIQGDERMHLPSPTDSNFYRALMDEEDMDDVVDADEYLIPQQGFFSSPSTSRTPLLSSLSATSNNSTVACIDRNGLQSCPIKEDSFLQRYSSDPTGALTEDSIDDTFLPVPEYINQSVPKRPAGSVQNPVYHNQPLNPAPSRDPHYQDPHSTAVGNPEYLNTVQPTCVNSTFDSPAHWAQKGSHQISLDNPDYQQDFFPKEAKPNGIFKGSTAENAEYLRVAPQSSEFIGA

The test addresses EGFR (Homo sapiens, UniProt P00533). Kind of test: Biochemical EGFR assay (ELISA, A431 cell lysate). Set-up: A431 cell lysate (Screening Lab, SUGEN, Inc.); host or cells: A431. Conditions: read-out: bio EGFr IC50. The gist of the method: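 EGFR captured from A431 cell lysate onto anti-EGFR-coated plates, then incubated with test compound for 30 min at room temperature. Tyrosine phosphorylation with ATP/MnCl2 was stopped with EDTA after 5 min and detected by anti-phosphotyrosine ELISA with peroxidase/ABTS read-out.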
In general terms: In an ELISA, binding on a coated surface is turned into a signal by an enzyme label.
Consider `CNC(=O)CCc1c(/C=C2\C(=O)Nc3ccccc32)[nH]c2c1CCCC2` [Example 201, N-Methyl-3-[2-(2-oxo-1,2-dihydroindol-3-ylidenemethyl)-4,5,6,7-tetrahydro-1H-indol-3-yl]-propionamide], for which the 50% inhibitory concentration (IC50) – broadly, the midpoint of a concentration-inhibition curve – was over 100 µM. The value for `O=C1Nc2ccc(N=Cc3cc4ccccc4[nH]3)cc2C1=Cc1cc2ccccc2[nH]1` [Example 171, 3-(1H-indol-2-ylmethylene)-5-[(1H-indol-2-ylmethylene)-amino]-1,3-dihydroindol-2-one] was over 100 µM; that for `O=C(O)CCc1c(/C=C2\C(=O)Nc3ncccc32)[nH]c2c1CCCC2` [Example 203, 3-[2-(2-Oxo-1,2-dihydropyrrolo[2,3-b]pyridin-3-ylidenemethyl)-4,5,6,7-tetrahydro-1H-indol-3-yl]-propionic acid] was over 12.5 µM. For the compound `O=C(CCc1c(/C=C2\C(=O)Nc3ccccc32)[nH]c2c1CCCC2)NCCN1CCOCC1` [Example 202, N-(2-Morpholin-4-ylethyl)-3-[2-(2-oxo-1,2-dihydroindol-3-ylidenemethyl)-4,5,6,7-tetrahydro-1H-indol-3-yl]-propionamide], the IC50 was over 100 µM. The value for `O=C(O)CCc1c(/C=C2\C(=O)Nc3cc(Cl)ccc32)[nH]c2c1CCCC2` [Example 195, 3-[2-(6-Chloro-2-oxo-1,2-dihydroindol-3-ylidenemethyl)-4,5,6,7-tetrahydro-1H-indol-3-yl]-propionic acid] was 36.5 µM; that for `Cc1cccc2c1/C(=C/c1[nH]c3c(c1CCC(=O)O)CCCC3)C(=O)N2` [Example 193, 3-[2-(4-Methyl-2-oxo-1,2-dihydroindol-3-ylidenemethyl)-4,5,6,7-tetrahydro-1H-indol-3-yl]-propionic acid] was 90.7 µM; that for `Cc1c(/C=C2\C(=O)Nc3ccc(N)cc32)[nH]c2ccccc12` [Example 180, 5-Amino-3-(3-methyl-1H-indol-2-ylmethylene)-1,3-dihydroindol-2-one] was over 100 µM.

Consider `COc1cccc(-c2ccc3c(c2)NC(=O)/C3=C\c2[nH]cc(C)c2CCC(=O)O)c1` [Example 223, 3-{2-[6-(3-Methoxyphenyl)-2-oxo-1,2-dihydro-indol-3-ylidenemethyl]-4-methyl-1H-pyrrol-3-yl}-propionic acid], for which the IC50 came out at 13.3 µM.

As for `COc1cccc(-c2ccc3c(c2)NC(=O)/C3=C\c2[nH]c3c(c2CCC(=O)O)CCCC3)c1` [Example 204, 3-{2-[6-(3-Methoxyphenyl)-2-oxo-1,2-dihydro-indol-3-ylidenemethyl]-4,5,6,7-tetrahydro-1H-indol-3-yl}-propionic acid], the 50% inhibitory concentration (IC50) is 7.09 µM. Turning to `CNS(=O)(=O)c1ccc2c(c1)/C(=C/c1cc3ccccc3[nH]1)C(=O)N2` [Example 173, 3-(1H-Indol-2-ylmethylene)-2-oxo-2,3-dihydro-1H-indole-5-sulfonic acid methylamide], the IC50 is 22 µM.

Regarding `O=C1Nc2ccc(C(=O)O)cc2/C1=C/c1ccc2[nH]ccc2c1` [Example 177, 3-(1H-Indol-5-ylmethylene)-2-oxo-2,3-dihydro-1H-indole-5-carboxylic acid], the IC50 was 6.13 µM.

Regarding `NS(=O)(=O)c1ccc2c(c1)/C(=C/c1c[nH]c3ccccc13)C(=O)N2` [Example 172, 3-(1H-Indol-3-ylmethylene)-2-oxo-2,3-dihydro-1H-indole-5-sulfonic acid amide], the half-inhibitory concentration (IC50) was over 100 µM.

`COc1c(C(C)C)cc(/C=C2/C(=O)Nc3ccc(Cl)cc32)cc1C(C)C` [Example 2, 5-Chloro-3-(3,5-diisopropyl-4-methoxybenzylidene)-1,3-dihydroindol-2-one]: the IC50 was over 100 µM. The value for `O=C1Nc2ccc(C(=O)O)cc2/C1=C/c1c[nH]c2ccccc12` [Example 174, 3-(1H-Indol-3-ylmethylene)-2-oxo-2,3-dihydro-1H-indole-5-carboxylic acid] was over 100 µM; that for `COc1ccc2c(c1)NC(=O)/C2=C\c1[nH]cc(C)c1CCC(=O)O` [Example 217, 3-[2-(6-Methoxy-2-oxo-1,2-dihydroindol-3-ylidenemethyl)-4-methyl-1H-pyrrol-3-yl]-propionic acid] was over 100 µM. The value for `Cc1c[nH]c(/C=C2\C(=O)Nc3ccccc32)c1CCC(=O)O` [Example 215, 3-[4-Methyl-2-(2-oxo-1,2-dihydroindol-3-ylidenemethyl)-1H-pyrrol-3-yl]-propionic acid] was over 100 µM; that for `Cc1c[nH]c(/C=C2\C(=O)Nc3ccc(Cl)cc32)c1CCC(=O)O` [Example 216, 3-[2-(5-Chloro-2-oxo-1,2-dihydroindol-3-ylidenemethyl)-4-methyl-1H-pyrrol-3-yl]-propionic acid] was over 100 µM; that for `COc1ccc(-c2ccc3c(c2)NC(=O)/C3=C\c2[nH]c3c(c2CCC(=O)O)CCCC3)cc1` [Example 205, 3-{2-[6-(4-Methoxyphenyl)-2-oxo-1,2-dihydro-indol-3-ylidenemethyl]-4,5,6,7-tetrahydro-1H-indol-3-yl}-propionic acid] was 16.2 µM.

`O=C1Nc2ccccc2/C1=C/c1[nH]c2c(c1CCC(=O)N1CCOCC1)CCCC2` [Example 200, 3-[3-(3-Morpholin-4-yl-3-oxopropyl)-4,5,6,7-tetrahydro-1H-indol-2-ylmethylene]-1,3-dihydroindol-2-one]: the IC50 is over 100 µM. The value for `CN(C)CCCc1c(/C=C2\C(=O)Nc3ccccc32)[nH]c2c1CCCC2` [Example 198, 3-[3-(3-Dimethylaminopropyl)-4,5,6,7-tetrahydro-1H-indol-2-ylmethylene]-1,3-dihydroindol-2-one] was over 100 µM; that for `CC(C)NS(=O)(=O)c1ccc2c(c1)C(=Cc1[nH]c3c(c1CCC(=O)O)CCCC3)C(=O)N2` [Example 208, 3-[2-(5-Isopropylaminosulfonyl-2-oxo-1,2-dihydroindol-3-ylidenemethyl)-4,5,6,7-tetrahydro-1H-indol-3-yl]-propionic acid] was over 100 µM. For the compound `CN(C)C(=O)CCc1c(/C=C2\C(=O)Nc3ccccc32)[nH]c2c1CCCC2` [Example 197, N,N-Dimethyl-3-[2-(2-oxo-1,2-dihydroindol-3-ylidenemethyl)-4,5,6,7-tetrahydro-1H-indol-3-yl]-propionamide], the IC50 is over 100 µM.

Take `Cc1c[nH]c(C=C2C(=O)Nc3cc(Cl)ccc32)c1CCC(=O)O` [Example 219, 3-[2-(6-Chloro-2-oxo-1,2-dihydroindol-3-ylidenemethyl)-4-methyl-1H-pyrrol-3-yl]-propionic acid]: the 50% inhibitory concentration (IC50) amounted to 98.1 µM. The value for `Cc1cc(CCC(=O)O)c(/C=C2\C(=O)Nc3ccc(Br)cc32)[nH]1` [Compound 116, 3-[2-(5-Bromo-2-oxo-1,2-dihydroindol-3-ylidenemethyl)-5-methyl-1H-pyrrol-3-yl]-propionic acid] was over 100 µM.

As to `COc1ccc2c(c1)/C(=C/c1[nH]cc(C)c1CCC(=O)O)C(=O)N2` [Example 222, 3-[2-(5-Methoxy-2-oxo-1,2-dihydroindol-3-ylidenemethyl)-4-methyl-1H-pyrrol-3-yl]-propionic acid], the IC50 was over 100 µM. On to `Cc1[nH]c2ccccc2c1/C=C1\C(=O)Nc2ccc(C(=O)O)cc21` [Example 182, 3-(2-Methyl-1H-indol-3-ylmethylene)-2-oxo-2,3-dihydro-1H-indole-5-carboxylic acid], for which the 50% inhibitory concentration (IC50) is over 100 µM.

Turning to `O=C(O)CCc1ccccc1/C=C1/C(=O)Nc2ccccc21` [Example 214, 3-[2-(2-Oxo-1,2-dihydroindol-3-ylidenemethyl)-phenyl]-propionic acid], the IC50 is over 100 µM.

`Nc1ccc2c(c1)/C(=C/c1ccc3[nH]ccc3c1)C(=O)N2` [Example 179, 5-Amino-3-(1H-indol-5-ylmethylene)-1,3-dihydro-indol-2-one]: the IC50 is over 100 µM.

Turning to `NC(=O)CCc1c(/C=C2\C(=O)Nc3ccccc32)[nH]c2c1CCCC2` [Example 199, 3-[2-(2-Oxo-1,2-dihydroindol-3-ylidenemethyl)-4,5,6,7-tetrahydro-1H-indol-3-yl]-propionamide], the concentration for half-maximal inhibition (IC50) was over 100 µM.

With `CCOC(=O)c1c(C)[nH]c(/C=C2\C(=O)Nc3ccc(Br)cc32)c1CCC(=O)O` [Compound 114, 5-(5-Bromo-2-oxo-1,2-dihydroindol-3-ylidenemethyl)-4-(2-carboxyethyl)-2-methyl-1H-pyrrole-3-carboxylic acid ethyl ester], the half-maximal inhibitory concentration (IC50) was over 100 µM.

On to `O=C(O)CCc1c(/C=C2\C(=O)Nc3ccc(Cl)cc32)[nH]c2c1CCCC2` [Example 191, 3-[2-(5-Chloro-2-oxo-1,2-dihydroindol-3-ylidenemethyl)-4,5,6,7-tetrahydro-1H-indol-3-yl]-propionic acid], for which the 50% inhibitory concentration (IC50) is over 100 µM. With `Cc1[nH]c2ccccc2c1/C=C1\C(=O)Nc2ccc(N)cc21` [Example 187, 5-Amino-3-(2-methyl-1H-indol-3-ylmethylene)-1,3-dihydroindol-2-one], the 50% inhibitory concentration (IC50) was over 100 µM.

For `COc1c(C(C)C)cc(/C=C2/C(=O)Nc3ccccc32)cc1C(C)C` [Example 1, 3-(3,5-Diisopropyl-4-methoxybenzylidene)-1,3-dihydroindol-2-one], the IC50 is over 100 µM.

For the origin of these results see patent US6855730B2, “3-methylidenyl-2-indolinone modulators of protein kinase” (Sugen, Inc., priority 1998, dated 2005).
